Converted amounts (≈) assume the structure as drawn.
What was measured:
[1] = test system: reference Gram-positive bacteria; experiment: Broth microdilution, summary over the Gram-positive panel; format: cell-based; conditions: read-out: MIC
From the text: (§1) In vitro antimicrobial activity assays - Methodology
(§2) The examined compounds 1 - 24 were screened in vitro for antibacterial and antifungal activities using the broth microdilution method according to procedure reported earlier by our research group and European Committee on Antimicrobial Susceptibility Testing (EUCAST) and Clinical and Laboratory Standards Institute (CLSI) guidelines against a panel of reference and clinical or saprophytic strains of microorganisms, in-cluding Gram-positive bacteria, Staphylococcus aureus ATCC 43300 (Methicillin Resistant S. aureus – MRSA), Staphylococcus aureus ATCC 29213 (Methicillin Susceptible S. aureus – MSSA), Staphylococcus epidermidis ATCC 12228, Enterococcus faecalis ATCC 29212, Micro-coccus luteus ATCC 10240, Bacillus subtilis ATCC 6633 and Bacillus cereus ATCC 10876), Gram-negative bacteria (Bordetella bronchiseptica ATCC 4617, Escherichia coli ATCC 25922, Klebsiella pneumoniae ATCC 13883, Proteus mirabilis ATCC 12453, Salmonella typhimurium ATCC 14028 and Pseudomonas aeruginosa ATCC 9027) and fungi belonging to yeasts (Can-dida albicans ATCC 10231, Candida albicans ATCC 2091, Candida parapsilosis ATCC 22019, Candida glabrata ATCC 90030 and Candida krusei ATCC 14243). The microorganisms be-longing to ATCC came from American Type Culture Collection, routinely used for the evaluation of antimicrobials. […]
Samples containing examined compounds were dissolved in dimethyl sulfoxide (DMSO). […]
(§3) Subsequently, the MIC (Minimal Inhibitory Concentration) of the compounds was ex-amined by the microdilution broth method, using their two-fold dilutions in Mueller- […]
(§4) Hinton broth or (for bacteria) and RPMI 1640 broth with MOPS (for fungi) prepared in 96-well polystyrene plates. Final concentrations of the compounds ranged from 1000 to 0.488 µg/ml. Microbial suspensions were prepared in 0.85% NaCl with an optical density of 0.5 McFarland standard. Next each bacterial or fungal suspension was added per each well containing broth and various concentrations of the examined compounds. After incuba-

[2] = test system: Bacillus cereus ATCC 10876; experiment: Broth microdilution MIC/MBC; format: cell-based
Procedure, shortened: (§5)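 Two-fold dilution series (final 1000–0.488 µg/ml) set up in Mueller-Hinton or RPMI 1640/MOPS broth. Suspensions in 0.85% NaCl at 0.5 McFarland were added to each well.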

[3] = test system: Klebsiella pneumoniae ATCC 13883; experiment: Broth microdilution MIC/MBC; format: cell-based
Procedure, shortened: as §5

[4] = test system: Escherichia coli ATCC 25922; experiment: Broth microdilution MIC/MBC; format: cell-based
Procedure, shortened: as §5

[5] = test system: Bordetella bronchiseptica ATCC 4617; experiment: Broth microdilution MIC/MBC; format: cell-based
Procedure, shortened: as §5

[6] = test system: Enterococcus faecalis ATCC 29212; experiment: Broth microdilution MIC/MBC; format: cell-based
Procedure, shortened: as §5

[7] = test system: Staphylococcus aureus ATCC 29213; experiment: Broth microdilution MIC/MBC; format: cell-based
Procedure, shortened: as §5

[8] = test system: Staphylococcus aureus ATCC 43300; experiment: Broth microdilution MIC/MBC; format: cell-based; conditions: Staphylococcus aureus ATCC 43300 (MRSA)
Procedure, shortened: as §5

[9] = test system: Proteus mirabilis ATCC 12453; experiment: Broth microdilution MIC/MBC; format: cell-based
Procedure, shortened: as §5

[10] = test system: Salmonella typhimurium ATCC 14028; experiment: Broth microdilution MIC/MBC; format: cell-based
Procedure, shortened: as §5

[11] = test system: Staphylococcus epidermidis ATCC 12228; experiment: Broth microdilution MIC/MBC; format: cell-based
Procedure, shortened: as §5

[12] = test system: Micrococcus luteus ATCC 10240; experiment: Broth microdilution MIC/MBC; format: cell-based
Procedure, shortened: as §5

[13] = test system: Pseudomonas aeruginosa ATCC 9027; experiment: Broth microdilution MIC/MBC; format: cell-based; conditions: ATCC9027
Procedure, shortened: as §5

[14] = test system: Bacillus subtilis ATCC 6633; experiment: Broth microdilution MIC/MBC; format: cell-based
Procedure, shortened: as §5

Gram-negative bacteria = experiment: Broth microdilution, summary over the Gram-negative panel; format: cell-based
From the text: as §1
as §2, with “antimicrobials. All the used microbial cultures were first subcultured on nu-trient agar or Sabouraud agar at 35°C for 18-24 h or 30°C for 24-48 h for bacteria and fungi,” for “antimicrobials.”
The surface of Mueller-Hinton agar (for bacteria) and RPMI 1640 with MOPS (for fungi) were inoculated with the suspensions of bacterial or fungal species. Microbial suspensions were prepared in sterile saline with an optical density of McFarland standard scale 0.5.
Samples containing examined compounds were dissolved in dimethyl sulfoxide (DMSO).
Furthermore, bacterial and fungal suspensions were put onto Petri dishes with solid me-dia containing 2 mg/mL of the tested compounds followed incubation at 37°C for 24h and 30°C for 48h for bacteria and fungi, respectively. The inhibition of microbial growth was judged by comparison with a control culture prepared without any sample tested. Ciprof-loxacin, vancomycin, nitrofurantoin, cefuroxime, ampicillin or nystatin (Sigma) were used as a reference antibacterial or antifungal compounds, respectively.
as §3, §4

[15] = test system: Candida albicans ATCC 10231; experiment: Broth microdilution MIC/MFC; format: cell-based
Procedure, shortened: as §5

[16] = test system: Candida glabrata ATCC 90030; experiment: Broth microdilution MIC/MFC; format: cell-based; conditions: Nakaseomyces glabratus, ATCC90030, read-out: MIC
Procedure, shortened: as §5

[17] = test system: Candida krusei ATCC 14243; experiment: Broth microdilution MIC/MFC; format: cell-based; conditions: Pichia kudriavzevii, ATCC14243, read-out: MIC
Procedure, shortened: as §5

[18] = test system: Candida parapsilosis ATCC 22019; experiment: Broth microdilution MIC/MFC; format: cell-based; conditions: Lodderomyces parapsilosis, ATCC22019, read-out: MIC
Procedure, shortened: as §5

[19] = test system: Candida albicans ATCC 2091; experiment: Broth microdilution MIC/MFC; format: cell-based
Procedure, shortened: as §5

HepG2 cells = test system: HepG2 cells; design: method as in doi:10.1016/j.cclet.2016.10.020; conditions: standard; cited from earlier work

Work on `O=C(N/N=C/c1cc(Br)c(O)c(Br)c1)c1ccc(O)cc1O` [Compound 17, N-[(3,5-dibromo-4-hydroxyphenyl)methylidene]-2,4-dihydroxybenzohydrazide] yielded a melting point of 260 °C, an MIC [1] of 15.6 to 1000 µg/mL (≈ 36.3 to 2330 µM) and an MBC/MIC [2] of over 4. It also gave an MBC ([2]; ATCC10876) of over 1000 µg/mL, an MIC ([2]; ATCC10876, read-out: MIC) of 250 µg/mL (≈ 581 µM) and an MBC/MIC [3] of over 1. It also gave an MBC ([3]; ATCC13883) of over 1000 µg/mL, an MIC ([3]; ATCC13883) of 1000 µg/mL (≈ 2330 µM) and an MBC/MIC [4] of over 1. It also gave an MBC ([4]; ATCC25922) of over 1000 µg/mL, an MIC ([4]; ATCC25922) of 1000 µg/mL (≈ 2330 µM) and an MBC/MIC [5] of over 1. For the same molecule, the MBC ([5]; ATCC4617) was over 1000 µg/mL, the MIC ([5]; ATCC4617) was 1000 µg/mL (≈ 2330 µM) and the MBC/MIC [6] was over 1. The MBC ([6]; ATCC29212, read-out: MBC) was over 1000 µg/mL, the MIC ([6]; ATCC29212, read-out: MIC) was 500 µg/mL (≈ 1160 µM) and the MBC/MIC [7] was 32. The MBC ([7]; ATCC29213) was over 1000 µg/mL, the MIC ([7]; ATCC29213) was 31.2 µg/mL (≈ 72.7 µM) and the MBC [8] was over 1000 µg/mL. It also gave an MBC/MIC [8] of over 16, an MIC [8] of 62.5 µg/mL (≈ 145 µM) and an MBC/MIC [9] of over 1. The MBC ([9]; ATCC12453) was over 1000 µg/mL, the MIC ([9]; ATCC12453) was 1000 µg/mL (≈ 2330 µM) and the MBC/MIC [10] was over 1. The MBC ([10]; Salmonella enterica) was over 1000 µg/mL, the MIC ([10]; Salmonella enterica) was 1000 µg/mL (≈ 2330 µM) and the MBC/MIC [11] was over 8. It also gave an MBC ([11]; ATCC12228) of over 1000 µg/mL, an MIC ([11]; ATCC12228, read-out: MIC) of 250 µg/mL (≈ 581 µM) and an MBC/MIC [12] of over 8. For the same molecule, the MBC ([12]; ATCC10240) was over 1000 µg/mL, the MIC ([12]; ATCC10240, read-out: MIC) was 125 µg/mL (≈ 291 µM) and the MIC [13] was over 1000 µg/mL. It also gave an MBC/MIC [14] of over 8, an MBC ([14]; ATCC6633) of over 1000 µg/mL and an MIC ([14]; ATCC6633, read-out: MIC) of 125 µg/mL (≈ 291 µM). For the same molecule, the MBC (Gram-negative bacteria) was over 1000 µg/mL, the MIC (Gram-negative bacteria) was 500 to 1000 µg/mL (≈ 1160 to 2330 µM) and the MFC/MIC [15] was over 1. For the same molecule, the MFC ([15]; ATCC10231, read-out: MFC) was over 1000 µg/mL, the MIC ([15]; ATCC10231, read-out: MIC) was 1000 µg/mL (≈ 2330 µM) and the MIC [16] was over 1000 µg/mL. For the same molecule, the MIC [17] was over 1000 µg/mL, the MIC [18] was over 1000 µg/mL and the MFC/MIC [19] was over 1. It also gave an MFC ([19]; ATCC2091, read-out: MFC) of over 1000 µg/mL and an MIC ([19]; ATCC2091, read-out: MIC) of 1000 µg/mL (≈ 2330 µM).
For `COc1cccc2c1C(=O)c1c(O)c3c(c(O)c1C2=O)C[C@@](O)(C(=O)CO)C[C@@H]3O[C@H]1C[C@H](N)[C@H](O)[C@H](C)O1` [doxorubicin], the IC50 (HepG2 cells) is given as 6 µM.

— publication PMC10743905, “Design, Synthesis, and In Vitro and In Vivo Bioactivity Studies of Hydrazide–Hydrazones of 2,4-Dihydroxybenzoic Acid” (International Journal of Molecular Sciences, 2023)
